Laboratory results as given in US11129801B2 (SigmaThera SAS, priority 2016, dated 2021).

Columns and labels:
[1] = tested on: Aβ25-35 mouse model of Alzheimer's disease; experiment: Spontaneous alternation in the Y-maze, Aβ25-35 mouse model; type: in vivo; conditions: for protection from injury produced by Aβ25-35 treatment, single agent: Experiment 4, i.p. day 1 to day 6, dose dependent; for highest sub-active dose, spontaneous alternation: Experiment 3, i.p.
Description: (§1) The compound efficacy was evaluated 7 days after the peptide administration on the attenuation of the Aβ25-35-induced learning deficits (spatial working memory using the spontaneous alternation in the Y-maze test, and contextual long-term memory using the passive avoidance test).
(§2) The mice were tested 7 days post injection or at the indicated time points.
(§3) In Experiment 2, twelve mice per experimental group were administered Sc.Aβ or Aβ25-35-amyloid peptide on day 0 by i.c.v. injection. […] Animals were tested at day 7 and later.
(§4) The synergy/additivity/antagonism was evaluated by calculating the combination index. […] Animals were then tested at day 7 and later.
(§5) Animals were tested at day 7 and later.
(§6) For each of Experiments 1-4, on day 7, all animals were tested for the spontaneous alternation performance in the Y-maze test, an index of spatial working memory. On day 8 and 9, the contextual long-term memory of the animals was assessed using the step-through type passive avoidance procedure. On day 9, immediately after the retention session, animals were sacrificed by decapitation and the hippocampus and cortex dissected out. Lipid peroxidation was analyzed in the hippocampus, whereas neuroinflammation, apoptosis, amyloid burden and hyperphosphorylation of tau protein were analyzed in cortex.
The homogeneous oligomeric preparation of Aβ25-35 peptide was performed according to the AMYLGEN's own procedure. Each mouse was anesthetized with isoflurane 2.5% and injected i.c.v. with Aβ25-35 peptide (9 nmol/mouse) or Sc.Aβ peptide (9 nmol/mouse), in a final volume of 3 μl/mouse, according to the previously described method (Maurice T, et al. (1996). Brain Res. 706(2): 181-193, Maurice T, et al. (1998) Neuroscience 83(2): 413-428, Meunier J, et al. (2006) British J. Pharmacol. 149(8): 998-1012, Villard V, et al. (2009) Neuropsychopharmacology 34(6): 1552-1566, Villard V, et al. (2011) J. Pharmacol. Sci. 115(3): 279-292).
Animals: Male Swiss mice, 6 weeks old and weighing 30-35 g, from JANVIER (Saint Berthevin, France), were kept for housing and experiments took place within the animal facility building of the University of Montpellier 2 (CECEMA, Office of Veterinary Services agreement #B-34-172-23). Animals were housed in groups with access to food and water ad libitum, except during behavioral experiments. They were kept in a temperature and humidity controlled animal facility on a 12 h/12 h light/dark cycle (lights off at 07:00 pm). Mice were numbered by marking their tail using permanent markers. All animal procedures were conducted in strict adherence to the European Union directive of Sep. 22, 2010 (2010/63/UE). Diagnostic summary reports of JANVIER were annexed to the study report.
Spontaneous alternation performance: Immediate working memory performance was assessed by recording spontaneous alternation behavior during a single session in a Y-maze as described previously (Itoh J, et al. (1993) Eur J Pharmacol 236(3): 341-345; Hiramatsu M and Inoue K (1999) Br J Pharmacol 127(3): 655-660). The Y-maze is made of grey polyvinylchloride. Each arm of the Y-maze was 40 cm long, 3 cm wide, and 13 cm high at the bottom, 10 cm wide at the top, and converging at an equal angle. Each mouse was placed at the end of one arm and allowed to move freely through the maze during an 8 min session. The series of arm entries, including possible returns into the same arm, was checked visually. An alternation was defined as entries into all three arms on consecutive occasions. The number of maximum alternations is therefore the total number of arm entries minus two and the percentage of alternation was calculated as (actual alternations/maximum alternations)×100. Parameters included the percentage of alternation (memory index) and total number of arm entries (exploration index).

[2] = tested on: Aβ25-35 mouse model of Alzheimer's disease; experiment: Aβ25-35 mouse model, overall neuroprotection (summary statements); type: in vivo; conditions: versus usual doses; ibuprofen, atorvastatin after allometric scaling mouse to human
Description: as §1, §2, §3, §4, §5, §6

sigma-1R = conditions: cited from earlier work
[3] = tested on: sigma-1 receptor / BiP complex; experiment: Dissociation of BiP from sigma-1 receptor in CHO cells; type: cell-based; conditions: 10 μM NE100 with 10 μM igmesine
Description: CHO cells were grown in a 6-well plates and treated with the compounds in culture medium at 37° C. for 30 min at 1 μM and 10 μM final concentration. The reaction was stopped by medium removal and adding 3 mL PBS at 37° C. CHO cells were harvested and suspended in 50 mM HEPES (pH7.4) followed by cross-linking with 50 μg/ml of dithio (bis) succinimidyl propionate (Thermo Fisher Scientific, Waltham, Mass.) for 30 min at 4° C. The reaction was stopped by adding Tris-HCl (pH 8.8, final 50 mM). Fifteen minutes after incubation on ice, cells were lysed with RIPA buffer [50 mM Tris (pH7.4), 150 mM NaCl, 1% Triton X-100, 0.3% sodium deoxycholate, 0.1% SDS, protease inhibitor cocktail (Roche Complete)]. After centrifugation at 12,000 g, 1 min, the supernatant was incubated overnight at 4° C. with Sig-1R antibody (Abcam). The cell lysate was incubated with Sepharose protein-A (Invitrogen) for 90 min. After centrifugation at 12,000 g, 1 min, the supernatant was discarded and the pellet was washed in 0.5 mL RIPA buffer. After a second centrifugation at 12,000 g, 20 min, the supernatant was discarded and the pellet was washed in 0.5 mL 2× Sample buffer/bMCE buffer. Following a third centrifugation at 12,000 g, 1 min, the supernatant was analysed by ELISA assay, according to the manufacturer's protocol (USCNK #SEC343Mu).

SMILES | protection from injury produced by Aβ25-35 treatment, single agent [1] | lowering of the partner drug's dose when associated with igmesine [2] | also measured
CC(C)c1c(C(=O)Nc2ccccc2)c(-c2ccccc2)c(-c2ccc(F)cc2)n1CC[C@@H](O)C[C@@H](O)CC(=O)O [atorvastatin, reference compound] | able to protect | 10 fold | –
CCC(C/C=C/c1ccccc1)(c1ccccc1)N(C)CC1CC1 (stereo not shown) [JO-1783, reference compound] | – | – | potency relative to igmesine at the binding site (sigma-1R): ten times less potent
CC(C)Cc1ccc(C(C)C(=O)O)cc1 (stereo not shown) [ibuprofen, reference compound] | able to protect | 3 fold | –
COc1cc2c(cc1OC)C(=O)C(CC1CCN(Cc3ccccc3)CC1)C2 (stereo not shown) [donepezil, reference compound] | – | 4 fold | highest sub-active dose, spontaneous alternation [1]: 0.25 mg/kg
CC12CC3CC(C)(C1)CC(N)(C3)C2 [memantine] | – | – | highest sub-active dose, spontaneous alternation [1]: 0.5 mg/kg
CCCN(CCC)CCc1ccc(OC)c(OCCc2ccccc2)c1 [NE100, reference compound] | – | – | antagonism of igmesine-induced BiP dissociation [3]: prevented
C#CCN(C)[C@H](C)Cc1ccccc1 [selegiline] | able to protect | – | –
